Where two headings read alike, the source gives them in different places. Starred links: 1 amine or outer side, 2 acyl side, 3 side chain; linkers in the order of their positions; H or OH if unused. Positions of bridges follow the written chain, without caps; N, C: chain ends. Non-standard residues stand in square brackets, D forms with d. Residues, ends and D or L forms follow the SMILES beside them. *: point of attachment. X6 = CS(=O)(=O)c1ccc(-c2ccc(C[C@H](N[*:1])C(=O)[*:2])cc2)cc1; Phe(3-OCH2COOH) = N[C@@H](Cc1cccc(OCC(=O)O)c1)C(=O)O; Trp(1-Ph) = N[C@@H](Cc1cn(-c2ccccc2)c2ccccc12)C(=O)O; NMePhe(3-Ph) = CN[C@@H](Cc1cccc(-c2ccccc2)c1)C(=O)O; Phe(4-COOH) = N[C@@H](Cc1ccc(C(=O)O)cc1)C(=O)O; Trp(7-aza) = N[C@@H](Cc1c[nH]c2ncccc12)C(=O)O; Piperazinyl(4-CH2COOH) = O=C(O)CN1CCN(*)CC1; Gly(decyl) = CCCCCCCCCC[C@H](N)C(=O)O; Gly(N(CH2)3COOH) = O=C(O)CCCNCC(=O)O; AEF = NCCOc1ccc(C[C@H](N)C(=O)O)cc1; NMeY = CN[C@@H](Cc1ccc(O)cc1)C(=O)O; X1 = CCCCCCC[C@H](N[*:1])C(=O)[*:2]; NMeF = CN[C@@H](Cc1ccccc1)C(=O)O; 3Pal = N[C@@H](Cc1cccnc1)C(=O)O; 4Pal = N[C@@H](Cc1ccncc1)C(=O)O; NMeE = CN[C@@H](CCC(=O)O)C(=O)O; Ahp(2) = CCCCC[C@H](N)C(=O)O; NMeA = CN[C@@H](C)C(=O)O; Dap = NC[C@H](N)C(=O)O; Propyl(3-NH2) = NCCC*; Sar = CNCC(=O)O

For assay [1], the target named is T1, Myostatin (Homo sapiens, UniProt O14793).
T1 construct: active myostatin (also called mature myostatin) is a homodimer consisting of two C-terminal growth factor domains; purchased R&D systems 788-G8/CF
T1 sequence (O14793 267-375): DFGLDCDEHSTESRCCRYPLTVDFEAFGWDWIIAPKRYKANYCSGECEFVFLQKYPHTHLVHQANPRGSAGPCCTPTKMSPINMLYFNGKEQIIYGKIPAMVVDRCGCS
The experiment in a line: HepG2 reporter gene assay, Evaluation Procedure (2): 2-concentrations assay, myostatin inhibition. It is filed as cell-based. A digest of the protocol:
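HepG2 cells (HB-8065, ATCC) carrying the transfected pGL3(CAGA)12-luc reporter plasmid were treated with myostatin (788-G8/CF, R&D systems) at a final concentration of 10 ng/mL plus peptide and incubated at 37°C, 5% CO2 for 20 to 24 hours. Luminescence was read after adding PBS mixed 1:1 with One-Glo substrate, and inhibition rate was calculated.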
Background: In a reporter assay the amount or activity of a reporter protein is the signal.

Assay [2] deals with T2, GDF-11 (Homo sapiens, UniProt O95390).
T2 construct: purchased R&D systems 1958-GD-G8/CF
T2 sequence (O95390 299-407): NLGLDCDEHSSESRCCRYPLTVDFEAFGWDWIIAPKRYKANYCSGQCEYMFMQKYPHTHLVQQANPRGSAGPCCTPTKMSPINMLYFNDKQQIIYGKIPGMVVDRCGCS
As to the kind of experiment: HepG2 reporter gene assay, Evaluation Procedure (2): 2-concentrations assay, GDF-11 inhibition. Format: cell-based. To be noted: for inhibition at 0.03 µM: HepG2, peptide 30nM, read-out: GDF11 Inhibition 30nM; for inhibition at 0.03 µM / inhibition at 0.1 µM: GDF-11 10 ng/mL; for inhibition at 0.1 µM: HepG2, peptide 100nM, read-out: GDF11 Inhibition 100nM. A digest of the protocol:
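HepG2 cells carrying the transfected pGL3(CAGA)12-luc reporter, a pGL3 vector with luciferase placed downstream of 12 CAGA repeats, were stimulated with GDF-11 at a final 10 ng/mL together with test peptide. Blank wells received no GDF-11 and no peptide. Plates were incubated 20 to 24 hours at 37°C with 5% CO2. Luminescence from One-Glo substrate was read to calculate percent inhibition.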

Setting [3] is: HepG2, read-out: inhibition rate (myostatin inhibition assay).
Setting [4] is: peptide 30nM, Myostatin 10 ng/mL, HepG2, read-out: Myostatin Inhibition 30nM.
Where [5] appears, read: peptide 100nM, Myostatin 10 ng/mL, HepG2, read-out: Myostatin Inhibition 100nM.

With `CCCCCCC[C@@H]1NC(=O)[C@H](Cc2ccccc2)N(C)C(=O)[C@H](CCCNC(=N)N)NC(=O)[C@H](Cc2ccc(C(=O)O)cc2)NC(=O)[C@H](Cc2cccc(OCC(=O)O)c2)NC(=O)[C@H](C)N(C)C(=O)[C@H]([C@@H](C)CC)NC(=O)[C@H](Cc2ccccc2)N(C)C(=O)[C@H](Cc2ccc(O)cc2)NC(=O)[C@H](Cc2ccc(-c3ccc(S(C)(=O)=O)cc3)cc2)NC(=O)[C@H](C)NC(=O)CN(CCCC(=O)O)C(=O)CSC[C@H](C(=O)O)NC(=O)[C@H](Cc2ccccc2)N(C)C(=O)[C@H](C)N(C)C1=O` [Myostatin_99_v370] ({CH2CO}-[Gly(N(CH2)3COOH)]A[X6]Y[NMeF]I[NMeA][Phe(3-OCH2COOH)][Phe(4-COOH)]R[NMeF][X1][NMeA][NMeF][dC]-OH; thioether N-15), the inhibition at 0.03 µM in assay [1] (setting [3]) worked out at 100%. In assay [1] (setting [3]), the inhibition at 0.1 µM is 100%. For the same compound, the inhibition in assay [2] (HepG2, read-out: inhibition rate (GDF-11 inhibition assay), Table 7-3/7-4, GDF-11 10 ng/mL, peptide at the higher of the 2 concentrations) worked out at 0%; in assay [2] (HepG2, read-out: inhibition rate (GDF-11 inhibition assay), Table 7-3/7-4, GDF-11 10 ng/mL, peptide at the lower of the 2 concentrations), 0%.
As for `CC[C@H](C)[C@@H]1NC(=O)[C@H](Cc2ccccc2)N(C)C(=O)[C@H](Cc2ccc(O)cc2)NC(=O)[C@H](Cc2c[nH]c3ccccc23)NC(=O)[C@H](CCCNC(=N)N)NC(=O)[C@H](C)NC(=O)CSC[C@@H](C(=O)N[C@H](CCC(=O)O)C(N)=O)NC(=O)[C@H](Cc2ccccc2)N(C)C(=O)[C@H](C)N(C)C(=O)[C@H](CC(C)C)NC(=O)[C@H](Cc2ccccc2)N(C)C(=O)[C@H](CCCNC(=N)N)NC(=O)[C@H](Cc2ccc(O)cc2)NC(=O)[C@H](Cc2ccc(O)cc2)NC(=O)CN(C)C1=O` [Myostatin_000099_16de] ({CH2CO}-ARWY[NMeF]I[Sar]YYR[NMeF]L[NMeA][NMeF]C[dE]-NH2; thioether N-15), the inhibition at 0.03 µM in assay [1] (setting [4]) was determined as 50%; in assay [2], 0%. Moreover, the inhibition at 0.1 µM was determined as 82% in assay [1] (setting [5]) and 3% in assay [2].
In the same order, the values of `CC[C@H](C)[C@@H]1NC(=O)[C@H](Cc2ccccc2)N(C)C(=O)[C@H](Cc2ccc(O)cc2)NC(=O)[C@H](Cc2c[nH]c3ccccc23)NC(=O)[C@H](C)NC(=O)CN(CCCC(=O)O)C(=O)CSC[C@H](C(N)=O)NC(=O)[C@H](Cc2ccccc2)N(C)C(=O)[C@H](C)N(C)C(=O)[C@H](CC(C)C)NC(=O)[C@H](Cc2ccccc2)N(C)C(=O)[C@H](CCCNC(=N)N)NC(=O)[C@H](Cc2cccnc2)NC(=O)[C@H](Cc2ccncc2)NC(=O)CN(C)C1=O` [Myostatin_99_Variant_23] ({CH2CO}-[Gly(N(CH2)3COOH)]AWY[NMeF]I[Sar][4Pal][3Pal]R[NMeF]L[NMeA][NMeF][dC]-NH2; thioether N-15) are 32%, 0%, 71% and 0%.
`CCCCCCCCCC[C@@H]1NC(=O)[C@H](Cc2ccccc2)N(C)C(=O)[C@H](CCCNC(=N)N)NC(=O)[C@H](Cc2ccc(C(=O)O)cc2)NC(=O)[C@H](Cc2cccc(OCC(=O)O)c2)NC(=O)[C@H]2CCCN2C(=O)[C@H]([C@@H](C)CC)NC(=O)[C@H](Cc2ccccc2)N(C)C(=O)[C@H](Cc2ccc(O)cc2)NC(=O)[C@H](Cc2cn(-c3ccccc3)c3ccccc23)NC(=O)[C@H](C)NC(=O)[C@H](C)NC(=O)CSC[C@H](C(=O)N2CCN(CC(=O)O)CC2)NC(=O)[C@H](Cc2cccc(-c3ccccc3)c2)N(C)C(=O)[C@H](CCC(=O)O)N(C)C1=O` [Myostatin_99_v331] ({CH2CO}-AA[Trp(1-Ph)]Y[NMeF]I[dP][Phe(3-OCH2COOH)][Phe(4-COOH)]R[NMeF][Gly(decyl)][NMeE][NMePhe(3-Ph)][dC]-{Piperazinyl(4-CH2COOH)}; thioether N-15): the inhibition at 0.1 µM in assay [1] (Table 7-3/7-4, myostatin 10 ng/mL, peptide at the higher of the 2 concentrations, HepG2, read-out: inhibition rate (myostatin inhibition assay)) amounted to 100%. Moreover, the inhibition at 0.03 µM in assay [1] (Table 7-3/7-4, myostatin 10 ng/mL, peptide at the lower of the 2 concentrations, HepG2, read-out: inhibition rate (myostatin inhibition assay)) is 100%. The inhibition in assay [2] (HepG2, first GDF-11 column of Table 7-3/7-4, GDF-11 10 ng/mL, peptide at the lower of the 2 concentrations, read-out: inhibition rate (GDF-11 inhibition assay)) was 0%; in assay [2] (HepG2, second GDF-11 column of Table 7-3/7-4, GDF-11 10 ng/mL, peptide at the higher of the 2 concentrations, read-out: inhibition rate (GDF-11 inhibition assay)) it was 0%.
For `CCCCCCC[C@@H]1NC(=O)[C@H](Cc2ccccc2)N(C)C(=O)[C@H](CCCNC(=N)N)NC(=O)[C@H](Cc2ccc(C(=O)O)cc2)NC(=O)[C@H](Cc2cccc(OCC(=O)O)c2)NC(=O)CN(C)C(=O)[C@H]([C@@H](C)CC)NC(=O)[C@H](Cc2ccccc2)N(C)C(=O)[C@H](Cc2ccc(OCCN)cc2)NC(=O)[C@H](Cc2c[nH]c3ccccc23)NC(=O)[C@H](C)NC(=O)[C@H](C)NC(=O)CSC[C@H](C(=O)N2CCN(CC(=O)O)CC2)NC(=O)[C@H](Cc2ccccc2)N(C)C(=O)[C@H](C)N(C)C1=O` [Myostatin_99_v299] ({CH2CO}-AAW[AEF][NMeF]I[Sar][Phe(3-OCH2COOH)][Phe(4-COOH)]R[NMeF][X1][NMeA][NMeF][dC]-{Piperazinyl(4-CH2COOH)}; thioether N-15), the inhibition at 0.03 µM in assay [1] (setting [4]) worked out at 93%; in assay [2], 0%. Besides, the inhibition at 0.1 µM came to 99% in assay [1] (setting [5]) and 0% in assay [2].
As to `CC[C@H](C)[C@@H]1NC(=O)[C@H](Cc2ccccc2)N(C)C(=O)[C@H](Cc2ccc(O)cc2)NC(=O)[C@H](Cc2c[nH]c3ccccc23)NC(=O)[C@H](CCCNC(=N)N)NC(=O)[C@H](C)NC(=O)CSC[C@@H](C(=O)N[C@@H](CN)C(N)=O)NC(=O)[C@H](Cc2ccccc2)N(C)C(=O)[C@H](C)N(C)C(=O)[C@H](CC(C)C)NC(=O)[C@H](Cc2ccccc2)N(C)C(=O)[C@H](CCCNC(=N)N)NC(=O)[C@H](Cc2ccc(O)cc2)NC(=O)[C@H](Cc2ccc(O)cc2)NC(=O)CN(C)C1=O` [Myostatin_000099_16Dap] ({CH2CO}-ARWY[NMeF]I[Sar]YYR[NMeF]L[NMeA][NMeF]C[Dap]-NH2; thioether N-15), the inhibition at 0.03 µM in assay [1] (setting [4]) stood at 56%; in assay [2], 0%. Also, the inhibition at 0.1 µM in assay [1] (setting [5]) stood at 83%; in assay [2] it was 11%.
The like results for `CCCCCCC[C@@H]1NC(=O)[C@H](Cc2ccccc2)N(C)C(=O)[C@H](CCCNC(=N)N)NC(=O)[C@H](Cc2ccc(C(=O)O)cc2)NC(=O)[C@H](Cc2cccc(OCC(=O)O)c2)NC(=O)CN(C)C(=O)[C@H]([C@@H](C)CC)NC(=O)[C@H](Cc2ccc(OCCCN)cc2)N(C)C(=O)[C@H](Cc2ccc(O)cc2)NC(=O)[C@H](Cc2c[nH]c3ccccc23)NC(=O)[C@H](C)NC(=O)[C@H](C)NC(=O)CSC[C@H](C(=O)N2CCN(CC(=O)O)CC2)NC(=O)[C@H](Cc2ccccc2)N(C)C(=O)[C@H](C)N(C)C1=O` [Myostatin_99_v302] ({CH2CO}-AAWY[NMeY](Propyl(3-NH2))I[Sar][Phe(3-OCH2COOH)][Phe(4-COOH)]R[NMeF][X1][NMeA][NMeF][dC]-{Piperazinyl(4-CH2COOH)}; thioether N-15) were, in that order, 99%, 0%, 100% and 0%.
The like results for `CC[C@H](C)[C@@H]1NC(=O)[C@H](Cc2ccccc2)N(C)C(=O)[C@H](Cc2ccc(O)cc2)NC(=O)[C@H](Cc2c[nH]c3ncccc23)NC(=O)[C@H](C)NC(=O)[C@H](C)NC(=O)CSC[C@H](C(=O)N[C@H](CO)C(=O)N[C@H](CO)C(=O)N[C@H](CO)C(=O)N[C@H](CCCCN)C(=O)O)NC(=O)[C@H](Cc2ccccc2)N(C)C(=O)[C@H](C)N(C)C(=O)[C@H](CC(C)C)NC(=O)[C@H](Cc2ccccc2)N(C)C(=O)[C@H](CCCNC(=N)N)NC(=O)[C@H](Cc2ccc(C(=O)O)cc2)NC(=O)[C@H](Cc2ccncc2)NC(=O)CN(C)C1=O` [Myostatin_99_v36] ({CH2CO}-AA[Trp(7-aza)]Y[NMeF]I[Sar][4Pal][Phe(4-COOH)]R[NMeF]L[NMeA][NMeF][dC][dS][dS][dS][dK]-OH; thioether N-15) were, in that order, 92%, 2%, 98% and 18%.
The like results for `CCCCC[C@@H]1NC(=O)[C@H](Cc2ccccc2)N(C)C(=O)[C@H](CCCNC(=N)N)NC(=O)[C@H](Cc2cccnc2)NC(=O)[C@H](Cc2cccc(OCC(=O)O)c2)NC(=O)CN(C)C(=O)[C@H]([C@@H](C)CC)NC(=O)[C@H](Cc2ccccc2)N(C)C(=O)[C@H](Cc2ccc(O)cc2)NC(=O)[C@H](Cc2c[nH]c3ccccc23)NC(=O)[C@H](C)NC(=O)[C@H](C)NC(=O)CSC[C@H](C(=O)O)NC(=O)[C@H](Cc2ccccc2)N(C)C(=O)[C@H](C)N(C)C1=O` [Myostatin_99_v205] ({CH2CO}-AAWY[NMeF]I[Sar][Phe(3-OCH2COOH)][3Pal]R[NMeF][Ahp(2)][NMeA][NMeF][dC]-OH; thioether N-15) were, in that order, 37%, 6%, 69% and 1%.
